Key:
[1] = tested on: intestinal enzymes; conditions: FIG. 3; same experimental conditions for free and entrapped insulin
[2] = tested on: Streptozotocin induced diabetic rats; assay: Antidiabetic activity of orally administered insulin loaded delivery systems; type: in vivo, rat
Experimental: The pharmacological availability was assessed by the above results.
Various insulin loaded drug delivery systems prepared were tested for antidiabetic activity in Streptozotocin induced diabetic rats and the results are briefed in summary section. These insulin drug delivery systems are orally administered to diabetic rats (n=number of animals). At various time intervals after feeding the rats were bled and their blood glucose levels determined.

[3] = tested on: VB12 transport system; conditions: oral uptake capacity; cited from earlier work
[4] = biological target: IF (Homo sapiens, UniProt P27352); conditions: among b, d and e monocarboxylate isomers; cited from earlier work
IF, sequence (P27352 19-417): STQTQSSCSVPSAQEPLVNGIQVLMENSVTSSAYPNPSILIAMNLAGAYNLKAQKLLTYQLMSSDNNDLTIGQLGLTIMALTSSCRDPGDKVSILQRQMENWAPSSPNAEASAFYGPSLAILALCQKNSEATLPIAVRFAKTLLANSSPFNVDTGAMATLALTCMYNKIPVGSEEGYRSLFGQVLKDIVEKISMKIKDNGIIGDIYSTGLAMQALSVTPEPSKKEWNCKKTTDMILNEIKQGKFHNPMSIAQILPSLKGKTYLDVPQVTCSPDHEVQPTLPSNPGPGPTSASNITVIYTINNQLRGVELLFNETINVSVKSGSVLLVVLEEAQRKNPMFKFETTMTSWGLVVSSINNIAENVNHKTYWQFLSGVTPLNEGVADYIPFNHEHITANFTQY

insulin
Degradation of insulin by digestive enzymes [1]: completely degraded
activity at 3rd, 4th, 5th and 6th hours [2]: no activity

Vitamin B12 [VB12]
uptake of VB12 [3]: 1 nmol/dose

‘e’ monocarboxylate of VB12 [Conjugate 1b]
affinity for IF [4]: highest affinity
